Test results: patent publication US10933141B2, “Formulations with reduced degradation of polysorbate” (Genentech, Inc., priority 2015, dated 2021)

Key:
[1] = target: T1, porcine pancreatic lipase (PPL) (Sus scrofa, UniProt P00591); assay: Subvisible particle formation after PPL digestion of PS20 (HIAC); assay type: physicochemical; details: 0.02% PS20; for effect on SVP formation (in words): 15 μg/mL PPL 4.5 hours, then 5° C. overnight, excipient 15% w/v (methionine 10 mg/mL)
T1 construct: purchased Sigma Aldrich Inc. (St. Louis, Mo.)
T1 sequence (P00591 1-450): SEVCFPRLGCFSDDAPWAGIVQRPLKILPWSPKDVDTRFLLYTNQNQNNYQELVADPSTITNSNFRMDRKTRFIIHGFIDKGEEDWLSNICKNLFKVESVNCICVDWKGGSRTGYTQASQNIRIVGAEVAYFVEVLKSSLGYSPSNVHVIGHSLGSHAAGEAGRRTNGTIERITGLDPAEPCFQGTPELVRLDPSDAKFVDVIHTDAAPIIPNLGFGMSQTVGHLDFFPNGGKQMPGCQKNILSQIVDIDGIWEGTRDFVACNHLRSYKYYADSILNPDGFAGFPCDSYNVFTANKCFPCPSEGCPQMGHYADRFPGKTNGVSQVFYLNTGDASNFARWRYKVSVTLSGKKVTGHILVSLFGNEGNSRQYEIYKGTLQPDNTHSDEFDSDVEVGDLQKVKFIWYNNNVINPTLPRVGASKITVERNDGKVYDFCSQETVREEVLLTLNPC
Description: Subvisible particles were measured using a HIAC 9703 particle counter equipped with an HRDL-150 detector and a 1 mL syringe. Performance of the instrument was verified with NIST-traceable 2 μm Polystyrene bead standards at 3000 counts/mL before each measurement session. The HIAC instrument was configured to a 10 mL/min flow rate, 0.1 mL tare volume, and 0.4 mL sample volume. The samples were analyzed using 4 runs of 0.4 mL sips, with the first run of each sample was discarded to prevent measurement error due to sample carryover. Results were reported as the average values for 1.4, 2, 5, 10, 15, and 25, 50 μm analysis filter sizes.
Several excipients were tested for their ability to protect PS20 against enzymatic hydrolysis including HP-α-CD, HP-β-CD, HP-γ-CD, SBE-β-CD, PVP, PEG 1500, sucrose, and methionine. Solutions of each excipient in pH 5.5 buffer were prepared containing a final concentration of 0.02% PS20 after enzyme addition. The concentration of HP-α-CD, HP-β-CD, HP-γ-CD, and SBE-β-CD in the excipient solutions was 106 mM. […] The remaining excipients (PVP, PEG 1500, sucrose) were added to 15% w/v to match the % w/v of HP-β-CD. Samples were digested with 15 μg/mL PPL enzyme for 4.5 hours at room temperature, followed by 30 minutes of heat inactivation at 85° C. Each sample was analyzed for PS20 concentration using high performance liquid chromatography with an inline evaporative light scattering detector. Samples were then placed at 5° C. overnight to allow for the formation of particles and were analyzed for visible and subvisible particles as described previously.
The effect of the HP-β-CD concentration at different PS20 concentrations on the enzymatic degradation of PS20 was assessed to identify optimal concentrations for inhibition of enzymatic PS20 degradation. To evaluate the dependence of PS20 degradation on HP-β-CD concentration, the PS20 content was determined using RP-ELSD for triplicate samples containing different HP-β-CD concentrations at various PS20 concentrations. Samples containing 0.005% (FIG. 14A), 0.02% (FIG. 14B), 0.1% (FIG. 14C), and 0.4% PS20 (FIG. 14D) were digested using 15 μg/mL of PPL enzyme for 4.5 hours at room temperature in protein-free samples containing no excipient (control), 0, 0.5, 5, and 15% (w/v) HP-β-CD. PPL was added to each of the treatment solutions at a ratio of 75 […], with an equivalent volume of buffer added to the control solutions to determine the effect of HP-β-CD to polysorbate ratio on enzymatic degradation. Digestion was stopped by heat inactivation in an 85° C. water bath for 30 minutes. Each sample was analyzed for PS20 concentration using high performance liquid chromatography with an inline evaporative light scattering detector as described above. Samples were then placed at 5° C. overnight to allow for the formation of particles and placed on ice during analysis for visible and subvisible particles as described above.

[2] = Oxidative PS20 degradation with AAPH, PS20 by RP-ELSD; assay type: physicochemical; details: 15% (w/v) excipient; 5 mM AAPH at 40° C. for 24 hours; n=3
Description: (§1) Polysorbate concentration was determined using reverse phase ultra-performance liquid chromatography using evaporative light scattering detection (RP-ELSD). Samples were analyzed using an Agilent 1100 series high performance liquid chromatography system (HPLC) fitted with a Waters Oasis MAX cartridge column (20×2.1 mm, 30 μm particle size). The HPLC system was set up with a switching valve directing column flow-through to either waste or a Varian 380-LC evaporative light scattering detector set to 100° C. The mobile phases consisted of 2% formic acid in water (Pump A) and 2% formic acid in isopropanol (Pump B). […] In order to quantitate the PS20 concentration, a standard curve was generated by injecting 20 μL of solutions containing between 0% w/v and 0.4% w/v PS20. For excipients which affected the migration time of PS20 through the column, PS20 standard curve solutions containing the relevant excipient were included in the analysis to facilitate accurate quantitation.
The ability of cyclodextrins to inhibit oxidative PS20 degradation was evaluated using 2,2′-Azobisisobutyramidinium (AAPH), which has been shown previously to degrade PS20 (Borisov et al., J. Pharm. Sci. 104:1005-1018 (2015)). […] Polysorbate 20 degradation was determined by RP-ELSD for samples oxidized with 5 mM AAPH at 40° C. for 24 hours containing no excipient (control), 15% (w/v) sucrose, and 15% (w/v) HP-β-CD.

[3] = target: T1, porcine pancreatic lipase (PPL); assay: Kinetics of enzymatic PS20 degradation by PPL; assay type: biochemical; details: 15% sucrose; 0.02% (w/v) PS20; 15 μg/mL PPL, about 25° C., 180 hours
Description: as §1, with “B). The pump gradient was isocratic at 10% pump B during equilibration, linear to 20% pump B for 1 minute, isocratic at 20% pump B for 2.4 minutes, linear to 100% pump B for 0.1 minutes, isocratic at 100% pump B for 1.1 minutes, linear to 10% pump B for 0.1 minutes, and finally isocratic at 10% pump B for 1.9 minutes.” for “B).”, “quantitation. […]” for “quantitation.”

[4] = PPL 4.5 hours, particles greater than 2, 5, or 10μ

| Molecule | effect on SVP formation (in words) [1] | HP-β-CD concentration required to completely inhibit sub-visible particle formation [1, 4] [%] | HP-β-CD concentration required to partially inhibit sub-visible particle formation [1, 4] [%] | decrease in relative percent PS20 [2] [%] | plateau of PS20 degradation curve [3] [%] |
| --- | --- | --- | --- | --- | --- |
| 2-hydroxypropyl-β-cyclodextrin [HP-β-CD] | significant inhibitory effects | 15 | 0.5 | 3.6 | – |
| 2-hydroxypropyl-α-cyclodextrin [HP-α-CD] | significant inhibitory effects | – | – | – | – |
| OC[C@H]1O[C@@](CO)(O[C@H]2O[C@H](CO)[C@@H](O)[C@H](O)[C@H]2O)[C@@H](O)[C@@H]1O [sucrose, reference compound] | – | – | – | 9.8 | 44 |
